Patent publication US20210275418A1, “Personal Care Compositions” (Colgate-Palmolive Company, priority 2020, published 2021)

How the values were obtained:
Type in all cases: biochemical
elastase = molecular target: T1, elastase (Homo sapiens, UniProt P08246); experiment: Elastase inhibition, elastase inhibitor screening kit (Sigma Aldrich MAK 213 Kit); conditions: Table 3, Example 7
T1 construct: purchased Sigma Aldrich MAK 213 Kit
T1 sequence (P08246 30-267): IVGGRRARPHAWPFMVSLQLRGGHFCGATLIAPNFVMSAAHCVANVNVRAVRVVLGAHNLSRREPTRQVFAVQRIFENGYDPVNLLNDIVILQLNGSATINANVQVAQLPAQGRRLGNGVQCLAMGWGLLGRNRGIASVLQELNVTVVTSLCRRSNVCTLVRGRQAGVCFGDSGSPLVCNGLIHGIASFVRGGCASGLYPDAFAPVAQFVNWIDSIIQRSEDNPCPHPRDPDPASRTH
Method: (§1) The anti-elastase activity of an exemplary composition of the present invention was compared to the anti-elastase activity of individual short chain fatty acids. Assays were performed using an elastase inhibitor screening kit from Sigma Aldrich (MAK 213 Kit); and following the manufacturer's protocol. The results of these experiments are described in Table 3 (below).

collagenase = experiment: Collagenase inhibition, collagenase inhibitor screening kit (Sigma Aldrich MAK 293 Kit)
Method: (§2) A study of collagenase inhibition is conducted (e.g., Sigma Aldrich MAK 293 Kit) to investigate the was conducted to investigate the efficacy of an exemplary composition of the present invention (1.25% lactic acid; 0.625% mandelic acid; and 0.312% pyruvic acid) and individual short chain fatty acids, at the same concentrations.
as §2, with “mandelic acid and” for “lactic acid;”, “0.625%” for “0.625% mandelic acid; and 0.312%”
as §1, with “anti-collagenase” for “anti-elastase”, “a collagenase” for “an elastase”, “293” for “213”, “2” for “3”
as §1, with “anti-collagenase” for “anti-elastase”, “a collagenase” for “an elastase”, “293” for “213”, “5” for “3”

tyrosinase = experiment: Tyrosinase inhibition, tyrosinase inhibitor screening kit (Sigma Aldrich MAK 257 Kit)
Method: A study of tyrosinase inhibition is conducted (e.g., Sigma Aldrich MAK 257 Kit) to investigate the efficacy of an exemplary composition of the present invention (0.312% lactic acid; 0.156% mandelic acid; and 0.078% pyruvic acid) and individual short chain fatty acids at the same concentrations.
A study of tyrosinase inhibition is conducted (e.g., Sigma Aldrich MAK 257 Kit) to investigate the efficacy of an exemplary composition of the present invention (0.312% mandelic acid and 0.156% pyruvic acid) and individual short chain fatty acids at the same concentrations.
as §1, with “anti-tyrosinase” for “anti-elastase”, “a tyrosinase” for “an elastase”, “257” for “213”, “1” for “3”
as §1, with “anti-tyrosinase” for “anti-elastase”, “a tyrosinase” for “an elastase”, “257” for “213”, “4” for “3”
Peels were diluted 1000× in buffer to prepare 0.1% working stock. The working stock was serially diluted 2× to test the peels at five doses (0.1 wt. %, 0.05 wt. %, 0.025 wt. %, 0.0125 wt. % and 0.00625 wt. %). The pH of all test samples and dilutions was measured before and after tyrosinase assay to exclude any effect of acid on the enzyme activity. The assay was performed using a commercial kit following manufacturer's protocol (e.g., MAK 257 Kit from Sigma Aldrich). LMP peels containing various concentrations of pyruvic acid at pH 2.5 (“R1 Peels”); LMP peels which were identically formulated to the R1 Peels, but with pH buffered to 3.6 (“R2 Peels”); and LMP′ peels which were identically formulated to the R2 Peels, other than the replacement of pyruvic acid with sodium pyruvate (“R3 Peels”), were all evaluated.

With `CC(=O)C(=O)O` [Pyruvic Acid (P), pyruvic acid] the “% Elastase Inhibition” value (elastase; 0.156 wt. %) was 20.21%, the “% Collagenase Inhibition” value (collagenase; Table 2, Example 6, 0.312 wt. %) was 8.79% and the “% Collagenase Inhibition” value (collagenase; Table B, Example 2, 0.312 wt. %) was 6.70%. For the same molecule, the “% Collagenase Inhibition” value (collagenase; Table D, Example 4, 0.625 wt. %) was 9.58%, the “% Tyrosinase Inhibition” value (tyrosinase; Table 1, Example 5, 0.078 wt. %) was 29.29% and the “% Tyrosinase Inhibition” value (tyrosinase; Table A, Example 1, 0.078 wt. %) was 0.37%. For the same molecule, the “% Tyrosinase Inhibition” value (tyrosinase; Table C, Example 3, 0.156 wt. %) was 26.62%.

In the case of `CC(O)C(=O)O` (centres unmarked) [Lactic Acid (L), lactic acid], the “% Elastase Inhibition” value (elastase; 0.625 wt. %) is reported as 44.89%, the “% Collagenase Inhibition” value (collagenase; Table 2, Example 6, 1.25 wt. %) is reported as 40.32% and the “% Collagenase Inhibition” value (collagenase; Table 5, Example 9, 1.25 wt. %) is reported as 12.71%. The “% Collagenase Inhibition” value (collagenase; Table B, Example 2, 1.25 wt. %) was 12.71%, the “% Tyrosinase Inhibition” value (tyrosinase; Table 1, Example 5, 0.312 wt. %) was 52.72% and the “% Tyrosinase Inhibition” value (tyrosinase; Table 4, Example 8, 0.312 wt. %) was 1.23%. For the same molecule, the “% Tyrosinase Inhibition” value (tyrosinase; Table A, Example 1, 0.312 wt. %) was 2.23%.

In the case of `O=C(O)C(O)c1ccccc1` (centres unmarked) [Mandelic Acid (M), mandelic acid], the “% Collagenase Inhibition” value (collagenase; Table 5, Example 9, 0.625 wt. %) is reported as 8.57%, the “% Collagenase Inhibition” value (collagenase; Table B, Example 2, 0.625 wt. %) is reported as 8.57% and the “% Collagenase Inhibition” value (collagenase; Table D, Example 4, 1.25 wt. %) is reported as 11.26%. The “% Tyrosinase Inhibition” value (tyrosinase; Table 4, Example 8, 0.156 wt. %) was 0.06%, the “% Tyrosinase Inhibition” value (tyrosinase; Table A, Example 1, 0.156 wt. %) was 0.06% and the “% Tyrosinase Inhibition” value (tyrosinase; Table C, Example 3, 0.312 wt. %) was 1.17%.
